Assay results as given in patent US20120258960A1, “NOVEL MULTIFUNCTIONAL PEPTIDASE INHIBITORS, ESPECIALLY FOR MEDICAL USE” (IMTM GMBH, priority 2009, published 2012).

How the values were obtained:
[1] = tested on: human peripheral blood mononuclear cells; experiment: Inhibition of proliferation of PHA-stimulated mononuclear cells (BrdU incorporation); format: cell-based; details: PBMC, 1 μg/ml Phytohemagglutinine, 48 hours, test compounds 0.1-250 μM, read-out: MNC IC50
Description: (§1) Peripheral blood mononuclear cells (PBMC) from healthy human volunteers were freshly isolated by density gradient centrifugation. T lymphocytes (T cells, Tc) were isolated from PBMC fractions via nylon wool adherence. Cells were cultured in standard cell culture media and stimulated by addition of 1 μg/ml Phytohemagglutinine for 48 hours in 96 well flat-bottom microtitre plates. Test compounds were added at concentration ranges from 0.1-250 μM over the total assay period.
DNA synthesis of proliferating PBMC was assessed by incorporation of nucleotide analogue bromdesoxyuridine (BrdU) and subsequent detection of optical density (OD) at 450 nm.
(§2) Data output was based on raw data and calculation of relative proliferation response in relation to PHA-activated T cells in the absence of test compound (100% control).
(§3) The […] value of proliferation suppression was assessed by graphical evaluation.

T lymphocytes = experiment: Inhibition of proliferation of PHA-stimulated T lymphocytes (tritium thymidine incorporation); format: cell-based; details: Homo sapiens, T-lymphocyte, 1 μg/ml Phytohemagglutinine, 48 hours, test compounds 0.1-250 μM, read-out: T cells IC50
Description: as §1
DNA synthesis of proliferating T cells was determined by incorporation of radio labelled tritium thymidine and subsequent radio detection.
as §2, §3

Sprague-Dawley rats = experiment: Infarct volume after transient focal cerebral ischemia (endothelin 1-induced middle cerebral artery occlusion, eMCAO); format: in vivo; details: cortex, 7 days after eMCAO, % of vehicle control (100%), mean ± S.E.M.; 2 μl of 10 mmol/l intracerebroventricularly during ischemia, 6 and 24 h after reperfusion
Description: Studies were performed on male Sprague-Dawley rats (250 to 280 g) obtained from Harlan Winkelmann (Borchen, Germany). The animals were maintained under constant environmental conditions with ambient temperature of 21±2° C. and relative humidity of 40%. They were housed with a 12-h light-dark cycle and given food and water ad libitum.
For stock solution of the compounds, a compound determined for use in the study (25 mmol) was dissolved in dimethyl sulfoxide (DMSO, SigmaAldrich, Germany) and diluted with 0.1 M phosphate buffer saline (PBS, pH 7.4) to a final volume of 10 mmol/l. 2 μl of a 10 mmol/l test compound PBS/DMSO solution was administered intra-cerebroventricularly at different time points after the induction of transient focal cerebral ischemia. If not otherwise stated, all other chemicals were of highest available purity.
The procedure for the induction of transient focal cerebral ischemia by occlusion of the middle cerebral artery via microinjection of endothelin 1 adjacent to the middle cerebral artery was modified from that published previously by Sharkey and Butcher, 1995. Anesthesia was induced with halothane in a mixture of nitrous oxide/oxygen (70:30, v/v) and maintained with 2 to 3% halothane during the following procedures. Rats were placed in a Kopf stereotaxic frame and further anesthetized via nose cone. For the induction of focal cerebral ischemia, a burr hole was drilled (1 mm diameter) into the skull (coordinates: anterior 0.90 mm from bregma, lateral 5.2 mm to satura sagittalis), and the dura was carefully opened. A 29-gauge cannula was lowered 7.5 mm below the dura according to the rat brain atlas of Paxinos and Watson (31). To induce occlusion of the middle cerebral artery, rats received an injection of […] of endothelin 1 (ED-1, Sigma-Aldrich) in 3 μl of 0.1 M phosphate-buffered saline, pH 7.4, over a time period of 5 min. After a further 5 min, the cannula was slowly withdrawn.
For intracerebroventricular application of the compounds selected, a second burr hole was drilled into the skull (coordinates: posterior 0.80 mm from bregma, lateral 1.5 mm to satura sagittalis), and a second 29-gauge cannula was lowered 4.5 mm below the dura. Intracerebroventricular applications of selected compounds (2 μl of a 10 mmol/l PBS/DMSO solution, pH 7.4) were performed during ischemia, 6 and 24 h after reperfusion.
After a survival time of 7 days after endothelin-induced middle cerebral artery occusion (eMCAO), animals were anesthetized by an intraperitonial injection of pentobarbital and perfusion-fixed transcardially with saline, followed by 4% paraformaldehyde in 0.1 M phosphate buffer saline, pH 7.4. Brains were then removed carefully, post-fixed in the same fixative for 2 h, and placed in a rodent brain matrix (rat, Activational Systems Inc., Scientific Instrumentation). 1-mm coronal brain slices were cut with a razor blade at 14 predetermined anterior-posterior levels. After cryoprotection in 30% sucrose, slices were rapidly frozen in isopentane and stored at −80° C. Four to five cryostat sections (30 μm) from each brain slice were cut in a cryo microtome and stained with toluidine blue.
The extent of cortical damage following ischemic injury was documented with microphotographic images from the Nissl-stained slices showing the anterior-posterior level according to the brain atlas of Paxinos and Watson (31). The volume of cortical infarct was determined by an operator blinded to the group composition.
The extent of the infarct area at each level was calculated by integrating of the area of damage at each stereotactic level and the distances between the various levels. Using a light microscope (Nikon, Eclipse TE 3000) equipped with a 4× objective, the image analysis was performed with a computer-assisted image analysis system (Lucia software, Version 4.2.1).
The data were statistically analyzed by non-paired Student's t tests. […]

Row | SMILES | IC50 [1] | IC50 (T lymphocytes) | Infarct Volume (%) (Sprague-Dawley rats)
1 | NC(CNC(=O)c1cccc(NC(=O)C(O)C(N)Cc2ccc(-c3ccsc3)cc2)c1)Cc1cc(F)ccc1F (centres unmarked) [drawing 284] | 4.7 µM | 3.9 µM | –
2 | NC(CNC(=O)c1cccc(NC(=O)C(O)C(N)Cc2ccc(-c3cccnc3)cc2)c1)Cc1cc(F)ccc1F (centres unmarked) [drawing 285] | 37.8 µM | 24.3 µM | –
3 | CC(C)(NC(=O)CC(N)Cc1ccccc1)C(C)(C)NC(=O)C(O)C(N)Cc1ccccc1 (centres unmarked) [drawing 286] | – | – | 70.7 ± 6.1 %
4 | NC(CC(=O)NCCCCNC(=O)C(O)C(N)Cc1ccccc1)Cc1cc(F)ccc1F (centres unmarked) [drawing 287] | – | – | 73.5 ± 5.7 %
5 | CCCCCCCCCCCCCCCC(=O)OC(C(=O)NCC(C)(C)CNC(=O)CC(N)Cc1cc(F)ccc1F)C(N)Cc1ccccc1 (centres unmarked) [drawing 288] | – | – | 58.6 ± 19.7 %
6 | CCCCCCCCCCCCCC(=O)NC(CC(=O)NCC(C)(C)CNC(=O)C(O)C(Cc1ccccc1)NC(=O)CCCCCCCCCCCCC)Cc1cc(F)ccc1F (centres unmarked) [drawing 289] | – | – | 60.7 ± 17.1 %
7 | CCCCCCCCCCCCCCCC(=O)NC(CC(=O)NCC(C)(C)CNC(=O)C(O)C(Cc1ccccc1)NC(=O)CCCCCCCCCCCCCCC)Cc1cc(F)ccc1F (centres unmarked) [drawing 290] | – | – | 75.6 ± 16.6%
8 | NC(CC(=O)NC1CCCC(NC(=O)C(O)C(N)Cc2ccccc2)C1)Cc1cc(F)ccc1F (centres unmarked) [drawing 291] | – | – | 64.2 ± 14.6 %
9 | CC(C)(CNCC(N)Cc1cc(F)ccc1F)CNC(=O)C(O)C(N)Cc1ccccc1 (centres unmarked) [drawing 292] | – | – | 59.9 ± 16.1 %
